US10947284B2, “Fusion molecules” (Pieris Pharmaceuticals GMBH, priority 2015, dated 2021)

What was measured:
[1] = molecular target: hNGAL (human lipocalin 2), wild type, SEQ ID NO: 1 (Homo sapiens, UniProt P80188); assay: Surface plasmon resonance (Biacore T200); assay type: binding; details: positive control
Excerpt: In a surface plasmon resonance (SPR) based assay, a Biacore T200 instrument (GE Healthcare) was used to measure the binding affinity of individual muteins or fusion molecules to pyoverdine siderophores (to pyoverdine I succinyl, -succinamide, -α-ketoglutaryl with complexed iron ion or to pyoverdine II succinyl, -succinamide, -α-ketoglutaryl with complexed iron ion or to pyoverdine III succinyl, -succinamide, -α-ketoglutaryl with complexed iron ion). To this end, muteins selected for binding to pyoverdines (SEQ ID NOs: 16, 36, 53), a fusion molecule (SEQ ID NO: 134) and a negative control (SEQ ID NO: 64) were biotinylated for 2 h at room temperature applying an appropriate excess of EZ-Link NHS-PEG4-Biotin (Thermo, Cat #21329) followed by separation of non-reacted biotin using a Zebra Spin Desalting Plate (Thermo, […]) according to the manufacturer's instructions.
In the SPR affinity assay, biotinylated muteins and negative control were captured on a sensor chip CAP using the Biotin CAPture Kit (GE Healthcare), wherein the Sensor Chip CAP is pre-immobilized with an ssDNA oligo. […] After ligand immobilization, the four concentrations of Pvd were applied consecutively in ascending order before the dissociation was monitored. […] Data were evaluated with Biacore T200 Evaluation software (V 1.0). […]

[2] = molecular target: T1, hNGAL (human lipocalin 2, parent wild type SEQ ID NO: 1) mutein SEQ ID NO: 62 (Homo sapiens, UniProt P80188, A60Q/C107S/D65G/D97L/I61W/K145F/K154F/K66R/K93I/L123G/L56H/L90D/N85D/Q69R/R101T/R92A/S147I/S88D/W99R/Y120H/Y126G/Y152A/Y72W); assay: Surface plasmon resonance (Biacore T200), CM5 chip; assay type: binding; details: SPR, high concentrations (≥1 μM)
T1 construct: made in house
T1 sequence (P80188 21-198 with the stated changes): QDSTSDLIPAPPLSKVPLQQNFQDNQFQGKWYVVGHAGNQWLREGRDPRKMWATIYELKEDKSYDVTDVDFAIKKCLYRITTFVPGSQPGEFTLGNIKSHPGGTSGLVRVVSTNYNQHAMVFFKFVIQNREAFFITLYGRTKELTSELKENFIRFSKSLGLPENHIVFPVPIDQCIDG
Description: (§1) Subsequently, 5 μg/mL of mutein or the negative control solution in 10 mM acetate pH 4.0 was applied at a flow rate of 10 μl/min until a high immobilization level of approximately 2000 RU was achieved. Residual activated groups were quenched with ethanolamine. The reference channels were treated with EDC/NHS following ethanolamine (blank immobilization).
The binding assay was carried out with a contact time of 180 s, dissociation times of 1200-1800 s and applying a flow rate of 30 μl/min. Measurements were performed at 25° C. Regeneration of the immobilized mutein surface was achieved by three consecutive injections of 10 mM Gly-HCl pH 1.5 (120 s) followed by an extra wash with running buffer and a stabilization period. Data were evaluated with Biacore T200 Evaluation software (V 1.0). Double referencing was used. The 1:1 Binding model was used to fit the raw data.
Subsequently, 5 μg/mL of mutein or the negative control solution in 10 mM acetate pH 4.0 was applied at a flow rate of 10 μl/min until a high immobilization level of approximately 2000 RU was achieved. Residual activated groups were quenched with ethanolamine. The reference channels were treated with EDC/NHS following ethanolamine (blank immobilization). […] The binding assay was carried out with a contact time of 180 s, dissociation times of 1500-1800 s and applying a flow rate of 30 μl/min. Measurements were performed at 25° C. Regeneration of the immobilized mutein surface was achieved by three consecutive injections of 10 mM Gly-HCl pH 1.5 (120 s) followed by an extra wash with running buffer and a stabilization period. Data were evaluated with Biacore T200 Evaluation software (V 1.0). Double referencing was used. The 1:1 Binding model was used to fit the raw data.

[3] = molecular target: lipocalin negative control SEQ ID NO: 64 (Homo sapiens, UniProt P80188, C107S/Q48H); assay: Surface plasmon resonance (Biacore T200); assay type: binding; details: Biacore, Example 18
lipocalin negative control SEQ ID NO: 64, sequence (P80188 21-198 Q48H/C107S): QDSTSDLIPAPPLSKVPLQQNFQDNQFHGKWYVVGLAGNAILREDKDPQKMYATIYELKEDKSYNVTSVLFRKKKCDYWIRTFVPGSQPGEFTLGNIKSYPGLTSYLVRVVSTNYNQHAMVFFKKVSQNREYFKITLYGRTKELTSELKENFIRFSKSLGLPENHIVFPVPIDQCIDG
Description: In a Surface Plasmon Resonance (SPR) based assay a Biacore T200 instrument (GE Healthcare) was used to measure the binding affinity of muteins to pyoverdine I succinyl, -succinamide, -α-ketoglutaryl with complexed iron ion or to pyoverdine II succinyl, -succinamide, -α-ketoglutaryl with complexed iron ion or to pyoverdine III succinyl, -succinamide, -α-ketoglutaryl with complexed iron ion. Muteins selected for binding to pyoverdines and negative control (SEQ ID NO: 64) were biotinylated for 2 h at room temperature applying an appropriate excess of EZ-Link NHS-PEG4-Biotin (Thermo, Cat #21329) followed by separation of non-reacted Biotin using a Zebra Spin Desalting Plate (Thermo, Cat #21329) according to the manufactures instructions.
In the SPR affinity assay, biotinylated muteins and negative control were captured on a sensor chip CAP using the Biotin CAPture Kit (GE Healthcare): Sensor Chip CAP is pre-immobilized with an ssDNA oligo. Undiluted Biotin CAPture Reagent (streptavidin conjugated with the complementary ss-DNA oligo) was applied at a flow rate of 2 μl/min for 300 s. Subsequently, 1 μg/ml to 100 μg/mL of biotinylated muteins or negative control were applied for 300 s at a flow rate of 5 μl/min. The reference channel was loaded with Biotin CAPture Reagent only.
Applying a flow rate of 30 μl/min, a single cycle or multi cycle kinetics approach was used with a sample contact time of 120-180 s and a dissociation time of 900-2400 s. […] After ligand immobilization, for analysis using single cycle kinetics all 4-5 concentrations of Pvd were applied consecutively in ascending order before the dissociation was monitored. For analysis using multi cycle kinetics 4 dilutions of Pvd were applied, each followed a dissociation phase. All measurements were performed at 25° C. […] Data were evaluated with Biacore T200 Evaluation software (V 1.0). Double referencing was used. A 1:1 Binding model was used to fit the raw data.
as §1
In the SPR affinity assay, biotinylated muteins and negative control were captured on a sensor chip CAP using the Biotin CAPture Kit (GE Healthcare), wherein the Sensor Chip CAP is pre-immobilized with an ssDNA oligo. Undiluted Biotin CAPture Reagent (streptavidin conjugated with the complementary ss-DNA oligo) was applied at a flow rate of 2 μl/min for 300 s. Subsequently, 20 μg/ml to 100 μg/mL of biotinylated muteins or fusion molecule negative control were applied for 300 s at a flow rate of 5 μl/min. The reference channel was loaded with Biotin CAPture Reagent only. To determine the binding affinity, four dilutions of the respective Pvd were prepared in HBS-EP+ buffer (GE Healthcare) and applied to the chip surface. Applying a flow rate of 30 μl/min, a single cycle kinetics approach was used with a sample contact time of 180 s and a dissociation time of 1800-2400 s. […] After ligand immobilization, the four concentrations of Pvd were applied consecutively in ascending order before the dissociation was monitored. All measurements were performed at 25° C. […] Data were evaluated with Biacore T200 Evaluation software (V 1.0). Double referencing was preformed. A 1:1 binding model was used to fit the raw data.

[4] = molecular target: T2, Fusion molecule SEQ ID NO: 134 (hNGAL muteins SEQ ID NOs: 36, 16, 53 and 62) (Homo sapiens, UniProt P80188, A60T/C107S/D97H, form not given/K145I/K154W/K93R/L123T/L56V/L90R/N85D/Q69G/R101D/R92I/S147R/S88D/T74A/W99Y/Y126Q/Y152I/Y72N); assay: Surface plasmon resonance (Biacore T200); assay type: binding
T2 construct: made in house; host or cells: HEK293
T2 sequence (P80188 with tags, fused parts or gaps with the stated changes, form open): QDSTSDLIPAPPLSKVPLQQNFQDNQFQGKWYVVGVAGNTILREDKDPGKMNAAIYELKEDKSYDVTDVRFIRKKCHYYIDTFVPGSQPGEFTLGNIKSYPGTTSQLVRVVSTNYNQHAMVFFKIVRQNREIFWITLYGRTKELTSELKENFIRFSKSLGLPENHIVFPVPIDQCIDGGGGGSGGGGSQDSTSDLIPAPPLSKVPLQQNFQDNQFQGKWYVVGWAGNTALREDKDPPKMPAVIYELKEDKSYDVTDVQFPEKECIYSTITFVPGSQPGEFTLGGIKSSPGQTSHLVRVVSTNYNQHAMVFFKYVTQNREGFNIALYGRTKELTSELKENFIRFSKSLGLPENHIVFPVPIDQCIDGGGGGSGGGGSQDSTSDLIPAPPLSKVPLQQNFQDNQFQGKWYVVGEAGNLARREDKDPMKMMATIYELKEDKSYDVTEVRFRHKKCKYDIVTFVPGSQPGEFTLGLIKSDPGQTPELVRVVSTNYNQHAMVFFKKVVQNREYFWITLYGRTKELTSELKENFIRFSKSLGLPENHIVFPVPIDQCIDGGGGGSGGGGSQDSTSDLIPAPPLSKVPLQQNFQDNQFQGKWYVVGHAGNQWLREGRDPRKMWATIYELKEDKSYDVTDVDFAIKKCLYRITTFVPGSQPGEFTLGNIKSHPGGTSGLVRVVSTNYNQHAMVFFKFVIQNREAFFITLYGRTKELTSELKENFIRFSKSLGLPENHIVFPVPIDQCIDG

P. aeruginosa PA01 = assay: Chronic lung infection model in rats; assay type: in vivo, Sprague Dawley rats; details: 20 mg/kg/dose, IV BD, treatment from day 3 post infection
Description: P. aeruginosa, PA01, was recovered from long-term storage at −80° C. by sub-culturing onto fresh blood agar plates and incubating at 37° C. overnight. The inoculum was prepared by picking 5-10 distinct colonies from the culture plates followed by suspension in 10 mL of Muller-Hinton broth. The culture was incubated for 18 hours on an orbital shaker at 300 rpm and 37° C. The culture was washed twice in PBS, then the pellet was resuspended in PBS and adjusted to an optical density of 0.669 at 600 nm (approximately 1.2×10^9 CFU/mL). This was further diluted to give an inoculum concentration of 6×10^7 CFU/mL. 1 mL of this inoculum was added to 30 mL of bacteriological agar, used to prepare the agarose beads (Cash H. A. et al., 1979). The final concentration of PA01 in the agarose beads was 2×10^6 CFU/mL (1×10^5 CFU per 50 μL inoculum).
Sprague Dawley rats used in this study were supplied by Charles River Laboratories UK. Rats were 200-225 g at the time of delivery and were specific pathogen free. Following arrival, rats were allowed at least 7 days acclimatization before the study was started. Rats were 250-300 g at the start of the study. Rats were group housed in sterile individually ventilated cages exposing the animals at all times to HEPA filtered sterile air. Rats had free access to food and water (sterile) and had sterile aspen chip bedding (changed every 3-4 days or as appropriate). […]

hNGAL (human lipocalin 2), wild type, SEQ ID NO: 1, sequence (P80188 21-198): as the sequence (P80188 21-198 Q48H/C107S) above, with H28Q, S87C counted along it

O=C(N[C@H]1COC(=O)[C@@H](NC(=O)c2cccc(O)c2O)COC(=O)[C@@H](NC(=O)c2cccc(O)c2O)COC1=O)c1cccc(O)c1O.[Fe+3] [Fe-Enterobactin, Fe-enterobactin]
binding [1]: showed binding
binding [2]: absence of binding
binding [3]: showed binding
KD ([4]; Biacore, 25° C., Table 13): no bdg
binding ([4]; SPR, high concentrations (≥1 μM)): absence of binding

NC[C@H]1O[C@H](O[C@H]2[C@H](O)[C@@H](O[C@H]3O[C@H](CO)[C@@H](O)[C@H](N)[C@H]3O)[C@H](N)C[C@@H]2N)[C@H](N)C[C@@H]1O [Tobramycin]
clearance of lung infection (P. aeruginosa PA01): cleared the infection starting from day 5 post-infection
